From ChEMBL document CHEMBL1201862, “PubChem BioAssay data set” (2004) come the findings set out here.

Active and inactive are the calls of the source. Cut-off read from the data, not from the text of the source, for most assays here: actives have a measured IC50 and inactives only a lower limit.

What all share (assay type): functional
In assay [1] the target is T1, Short transient receptor potential channel 4 (Mus musculus, UniProt Q9QUQ5).
T1 sequence (Q9QUQ5 whole entry): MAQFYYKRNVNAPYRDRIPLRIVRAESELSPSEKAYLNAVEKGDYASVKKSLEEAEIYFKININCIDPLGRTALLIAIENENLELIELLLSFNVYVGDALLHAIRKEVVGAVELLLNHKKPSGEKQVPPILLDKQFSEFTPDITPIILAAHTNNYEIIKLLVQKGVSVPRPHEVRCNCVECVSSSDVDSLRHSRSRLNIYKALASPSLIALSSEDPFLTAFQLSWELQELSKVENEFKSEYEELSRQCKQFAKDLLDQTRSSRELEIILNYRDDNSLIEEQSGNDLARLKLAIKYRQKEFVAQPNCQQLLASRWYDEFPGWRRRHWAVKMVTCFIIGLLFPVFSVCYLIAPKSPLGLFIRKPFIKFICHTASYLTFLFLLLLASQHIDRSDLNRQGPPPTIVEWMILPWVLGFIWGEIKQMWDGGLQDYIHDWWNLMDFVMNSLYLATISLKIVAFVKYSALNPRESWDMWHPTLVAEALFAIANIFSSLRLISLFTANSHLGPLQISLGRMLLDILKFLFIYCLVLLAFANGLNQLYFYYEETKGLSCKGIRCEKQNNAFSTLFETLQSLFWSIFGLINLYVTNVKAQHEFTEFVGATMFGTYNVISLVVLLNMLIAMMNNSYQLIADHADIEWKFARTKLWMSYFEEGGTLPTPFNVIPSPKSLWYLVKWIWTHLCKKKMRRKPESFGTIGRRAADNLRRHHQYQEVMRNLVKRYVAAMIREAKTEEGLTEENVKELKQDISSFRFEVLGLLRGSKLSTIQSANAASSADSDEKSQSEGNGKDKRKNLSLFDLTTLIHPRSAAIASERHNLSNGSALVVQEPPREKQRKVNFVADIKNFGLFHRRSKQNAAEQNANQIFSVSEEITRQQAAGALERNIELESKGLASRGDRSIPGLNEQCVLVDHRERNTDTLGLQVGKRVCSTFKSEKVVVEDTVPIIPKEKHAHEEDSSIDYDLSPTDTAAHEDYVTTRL
Description: calcium entry via TRPC4 opening agents – cell-based, HEK293 TRPC4/mu-opioid, Fluo-4 calcium, dose response (AID 434937).

Assay [2] concerns the target Ras and Rab interactor 1/Tyrosine-protein kinase ABL1 (Homo sapiens, UniProt P00519+Q13671).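 Note: biochemical TR-FRET dose-response test measuring inhibition of binding between Rin1 and Abl proteins.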
Assay [3] has as its target T2, Sentrin-specific protease 7 (Homo sapiens, UniProt Q9BQF6).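 Note: Luminescence-based dose-response confirmation of ultra-high-throughput screening hits, measuring inhibition of SENP7.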
T2 sequence (Q9BQF6 whole entry): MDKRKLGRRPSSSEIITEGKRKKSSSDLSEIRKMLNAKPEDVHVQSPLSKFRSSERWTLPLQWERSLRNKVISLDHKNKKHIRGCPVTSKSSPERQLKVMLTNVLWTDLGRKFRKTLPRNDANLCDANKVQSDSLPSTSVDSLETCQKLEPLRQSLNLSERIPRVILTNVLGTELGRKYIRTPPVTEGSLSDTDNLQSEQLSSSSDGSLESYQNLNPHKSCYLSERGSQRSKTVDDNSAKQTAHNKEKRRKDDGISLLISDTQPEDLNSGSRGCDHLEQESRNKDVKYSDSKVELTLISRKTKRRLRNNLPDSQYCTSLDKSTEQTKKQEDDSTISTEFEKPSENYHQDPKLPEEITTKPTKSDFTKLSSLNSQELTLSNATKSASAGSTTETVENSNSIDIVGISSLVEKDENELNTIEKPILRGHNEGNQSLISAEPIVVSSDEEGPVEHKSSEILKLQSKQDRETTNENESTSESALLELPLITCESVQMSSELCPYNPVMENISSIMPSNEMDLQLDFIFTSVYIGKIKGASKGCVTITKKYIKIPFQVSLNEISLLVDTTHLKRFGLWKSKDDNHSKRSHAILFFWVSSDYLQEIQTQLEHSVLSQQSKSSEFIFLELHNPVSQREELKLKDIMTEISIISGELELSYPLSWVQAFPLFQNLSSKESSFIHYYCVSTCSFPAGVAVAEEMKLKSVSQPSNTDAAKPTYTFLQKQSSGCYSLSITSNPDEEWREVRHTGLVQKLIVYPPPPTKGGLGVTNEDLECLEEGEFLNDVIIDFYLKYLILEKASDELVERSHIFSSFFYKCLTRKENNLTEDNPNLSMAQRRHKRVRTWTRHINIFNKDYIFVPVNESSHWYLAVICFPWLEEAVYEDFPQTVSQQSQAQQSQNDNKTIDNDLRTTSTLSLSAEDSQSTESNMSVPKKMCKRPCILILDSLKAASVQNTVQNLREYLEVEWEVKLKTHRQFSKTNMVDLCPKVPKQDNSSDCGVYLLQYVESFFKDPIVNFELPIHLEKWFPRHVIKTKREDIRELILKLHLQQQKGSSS

In assay [4] the target is T3, Sentrin-specific protease 6 (Homo sapiens, UniProt Q9GZR1).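 Note: Luminescence-based dose-response confirmatory assay of SENP6 inhibition, following up an ultra-high-throughput screen.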
T3 sequence (Q9GZR1 whole entry): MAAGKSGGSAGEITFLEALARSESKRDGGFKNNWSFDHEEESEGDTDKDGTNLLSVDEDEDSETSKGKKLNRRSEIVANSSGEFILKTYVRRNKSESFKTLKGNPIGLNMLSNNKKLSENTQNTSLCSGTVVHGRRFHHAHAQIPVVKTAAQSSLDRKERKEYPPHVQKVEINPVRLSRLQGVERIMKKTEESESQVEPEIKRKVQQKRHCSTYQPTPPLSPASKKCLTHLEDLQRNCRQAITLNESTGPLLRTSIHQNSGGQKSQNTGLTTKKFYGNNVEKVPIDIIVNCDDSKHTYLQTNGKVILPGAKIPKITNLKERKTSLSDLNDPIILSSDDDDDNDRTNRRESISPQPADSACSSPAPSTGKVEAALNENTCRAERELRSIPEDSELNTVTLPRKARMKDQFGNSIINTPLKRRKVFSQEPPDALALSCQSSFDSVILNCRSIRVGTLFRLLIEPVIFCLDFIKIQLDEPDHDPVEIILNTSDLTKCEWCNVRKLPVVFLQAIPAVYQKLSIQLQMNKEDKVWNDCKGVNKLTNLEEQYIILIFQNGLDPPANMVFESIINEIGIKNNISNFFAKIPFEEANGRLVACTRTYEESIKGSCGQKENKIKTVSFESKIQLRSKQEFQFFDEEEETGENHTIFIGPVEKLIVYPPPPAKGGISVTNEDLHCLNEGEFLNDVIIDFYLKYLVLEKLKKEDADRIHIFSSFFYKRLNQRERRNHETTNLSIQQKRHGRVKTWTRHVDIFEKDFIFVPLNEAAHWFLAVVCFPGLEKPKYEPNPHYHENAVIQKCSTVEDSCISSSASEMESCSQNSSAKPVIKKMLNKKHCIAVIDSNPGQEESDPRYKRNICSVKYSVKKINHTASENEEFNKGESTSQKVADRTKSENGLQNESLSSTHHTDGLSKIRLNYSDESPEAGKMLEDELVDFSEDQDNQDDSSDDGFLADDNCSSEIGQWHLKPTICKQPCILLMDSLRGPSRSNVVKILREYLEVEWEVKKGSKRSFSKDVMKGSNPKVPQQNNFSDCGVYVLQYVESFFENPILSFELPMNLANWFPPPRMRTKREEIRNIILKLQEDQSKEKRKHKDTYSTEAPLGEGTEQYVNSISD

Assay [5] concerns the target T4, Sentrin-specific protease 8 (Homo sapiens, UniProt Q96LD8).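 Note: luminescence read-out of SENP8 inhibition, dose-response confirmation following an ultra-high-throughput screen.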
T4 sequence (Q96LD8 whole entry): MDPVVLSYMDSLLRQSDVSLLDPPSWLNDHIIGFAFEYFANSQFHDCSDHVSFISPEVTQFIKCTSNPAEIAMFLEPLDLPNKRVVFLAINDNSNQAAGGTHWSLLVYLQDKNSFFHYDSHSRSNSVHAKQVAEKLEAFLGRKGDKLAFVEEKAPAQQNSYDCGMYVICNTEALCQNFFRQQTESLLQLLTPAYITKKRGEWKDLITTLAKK

The nature of assay [6]: Luminescence Cell-Based Dose Retest to Confirm Inhibitors of Cancer Stem Cells. [Related pubchem assays (depositor defined):AID2717, AID2721]. As to conditions: Homo sapiens.
Assay [7] has as its target T5, Apoptotic protease-activating factor 1 (Homo sapiens, UniProt O14727).
T5 sequence (O14727 whole entry): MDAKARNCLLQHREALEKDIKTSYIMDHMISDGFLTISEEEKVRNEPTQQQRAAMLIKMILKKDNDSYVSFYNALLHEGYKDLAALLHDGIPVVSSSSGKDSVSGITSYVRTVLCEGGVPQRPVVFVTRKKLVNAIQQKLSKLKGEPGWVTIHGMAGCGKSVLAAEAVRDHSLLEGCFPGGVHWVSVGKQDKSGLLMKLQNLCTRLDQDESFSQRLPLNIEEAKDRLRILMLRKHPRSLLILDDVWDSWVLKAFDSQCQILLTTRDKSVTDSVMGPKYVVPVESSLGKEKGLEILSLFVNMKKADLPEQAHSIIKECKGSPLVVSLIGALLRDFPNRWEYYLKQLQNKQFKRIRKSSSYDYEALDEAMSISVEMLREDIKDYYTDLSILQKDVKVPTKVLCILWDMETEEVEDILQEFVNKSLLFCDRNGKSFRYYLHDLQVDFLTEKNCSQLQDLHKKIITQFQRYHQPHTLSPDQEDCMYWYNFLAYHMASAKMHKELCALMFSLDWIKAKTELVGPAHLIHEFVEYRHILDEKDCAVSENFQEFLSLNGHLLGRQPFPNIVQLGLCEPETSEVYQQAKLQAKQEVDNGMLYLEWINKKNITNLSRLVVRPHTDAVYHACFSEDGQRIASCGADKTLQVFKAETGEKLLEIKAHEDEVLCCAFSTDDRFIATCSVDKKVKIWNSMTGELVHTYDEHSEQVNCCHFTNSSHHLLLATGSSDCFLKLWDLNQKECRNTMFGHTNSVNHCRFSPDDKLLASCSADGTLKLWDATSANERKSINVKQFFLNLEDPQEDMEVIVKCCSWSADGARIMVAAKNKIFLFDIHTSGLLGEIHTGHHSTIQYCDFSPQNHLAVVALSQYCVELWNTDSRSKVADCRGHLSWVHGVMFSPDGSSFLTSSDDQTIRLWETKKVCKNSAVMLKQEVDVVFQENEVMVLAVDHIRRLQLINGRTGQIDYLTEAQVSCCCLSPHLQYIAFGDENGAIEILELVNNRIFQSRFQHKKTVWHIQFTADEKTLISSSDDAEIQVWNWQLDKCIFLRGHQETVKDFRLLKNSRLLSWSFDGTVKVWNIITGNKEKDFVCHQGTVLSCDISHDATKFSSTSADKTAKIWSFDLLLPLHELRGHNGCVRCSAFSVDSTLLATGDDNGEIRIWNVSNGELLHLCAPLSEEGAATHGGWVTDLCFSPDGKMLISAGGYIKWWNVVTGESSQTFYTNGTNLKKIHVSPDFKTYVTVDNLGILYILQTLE
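Throughout, for AC50: cells exposed to compound for roughly 70 hours or longer before luminescence read.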

Sequence of Ras and Rab interactor 1/Tyrosine-protein kinase ABL1 (P00519 whole entry): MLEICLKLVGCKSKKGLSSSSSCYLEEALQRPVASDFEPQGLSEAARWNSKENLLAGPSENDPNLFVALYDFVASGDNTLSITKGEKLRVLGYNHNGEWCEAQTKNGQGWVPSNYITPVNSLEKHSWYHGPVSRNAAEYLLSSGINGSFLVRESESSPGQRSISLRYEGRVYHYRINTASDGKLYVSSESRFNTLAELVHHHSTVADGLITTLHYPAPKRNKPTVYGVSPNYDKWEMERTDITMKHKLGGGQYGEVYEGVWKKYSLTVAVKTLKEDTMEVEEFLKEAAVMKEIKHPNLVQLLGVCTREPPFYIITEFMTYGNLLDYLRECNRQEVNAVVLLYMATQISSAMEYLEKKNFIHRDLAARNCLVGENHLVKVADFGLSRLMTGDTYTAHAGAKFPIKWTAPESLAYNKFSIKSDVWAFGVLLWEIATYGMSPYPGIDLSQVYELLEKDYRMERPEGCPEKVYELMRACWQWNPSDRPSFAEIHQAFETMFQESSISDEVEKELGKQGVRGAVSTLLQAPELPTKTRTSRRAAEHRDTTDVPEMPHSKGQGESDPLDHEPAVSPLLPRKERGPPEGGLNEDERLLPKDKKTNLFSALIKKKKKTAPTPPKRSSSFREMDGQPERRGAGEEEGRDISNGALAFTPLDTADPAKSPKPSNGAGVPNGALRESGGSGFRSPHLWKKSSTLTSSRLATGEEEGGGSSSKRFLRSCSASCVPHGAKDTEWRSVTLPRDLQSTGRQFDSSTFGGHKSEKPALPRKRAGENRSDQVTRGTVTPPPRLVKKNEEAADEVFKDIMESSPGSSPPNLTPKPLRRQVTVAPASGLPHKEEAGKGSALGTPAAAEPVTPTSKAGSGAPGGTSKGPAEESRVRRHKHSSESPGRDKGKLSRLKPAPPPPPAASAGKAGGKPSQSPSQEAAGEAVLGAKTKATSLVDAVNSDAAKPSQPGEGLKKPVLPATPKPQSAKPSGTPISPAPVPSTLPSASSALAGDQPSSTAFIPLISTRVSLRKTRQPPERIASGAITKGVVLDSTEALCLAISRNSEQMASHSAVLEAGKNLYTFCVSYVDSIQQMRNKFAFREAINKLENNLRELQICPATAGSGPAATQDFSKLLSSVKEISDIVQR
Sequence of Ras and Rab interactor 1/Tyrosine-protein kinase ABL1 (Q13671 whole entry): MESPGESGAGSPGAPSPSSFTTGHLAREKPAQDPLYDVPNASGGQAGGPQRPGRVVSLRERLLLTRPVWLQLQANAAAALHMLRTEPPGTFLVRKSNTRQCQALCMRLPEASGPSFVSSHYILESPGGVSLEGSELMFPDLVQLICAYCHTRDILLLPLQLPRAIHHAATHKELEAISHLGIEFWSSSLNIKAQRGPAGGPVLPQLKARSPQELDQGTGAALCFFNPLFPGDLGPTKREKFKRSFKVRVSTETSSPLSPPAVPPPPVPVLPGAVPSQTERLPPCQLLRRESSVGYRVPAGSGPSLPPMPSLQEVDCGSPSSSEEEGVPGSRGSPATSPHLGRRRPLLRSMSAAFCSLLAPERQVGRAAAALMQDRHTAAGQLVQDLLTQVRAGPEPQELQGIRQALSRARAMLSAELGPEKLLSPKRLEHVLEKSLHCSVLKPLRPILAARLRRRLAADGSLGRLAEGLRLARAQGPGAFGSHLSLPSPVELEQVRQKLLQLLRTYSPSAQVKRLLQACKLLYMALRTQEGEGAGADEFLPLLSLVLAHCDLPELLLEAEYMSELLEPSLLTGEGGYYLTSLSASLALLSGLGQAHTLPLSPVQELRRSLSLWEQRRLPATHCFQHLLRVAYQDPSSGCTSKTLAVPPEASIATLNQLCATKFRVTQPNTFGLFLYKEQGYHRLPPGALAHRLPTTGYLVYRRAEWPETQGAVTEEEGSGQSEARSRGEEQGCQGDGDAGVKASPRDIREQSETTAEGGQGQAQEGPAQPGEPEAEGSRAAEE

Broadly, the EC50 is the concentration needed to bring the measured effect to its halfway point. Take `CCOC(=O)C1(CCc2ccccc2)CCN(Cc2ccc(OC)cc2)CC1`: the concentration for a half-maximal effect (EC50) in assay [1] is 0.267 µM (active). Usually IC50 stands for the point on the concentration scale where inhibition reaches its midpoint. Consider `CN(C(=O)c1ccc(NC(=O)Cc2cccc(NC(=O)C3CCN(C(=O)C4CCCC4)CC3)c2)cc1)C1CC1`, for which, in assay [2], the IC50 is 21.2 µM (inactive). For the compound `COc1cccc(NC(=O)Nc2ccc3c(c2)CCC3)c1`, the values for the IC50 in assay [3], in assay [4] and in assay [5] were 4.28 µM (active), > 100 µM (inactive) and > 100 µM (inactive), respectively. What is called AC50 is the concentration giving half of the maximal activity seen. Take `COc1cc2ccccc2cc1C(=O)Nc1ccccc1Cl`: the AC50 in assay [6] is 4.58 µM (active). For the same compound, the IC50 in assay [3] was 8.41 µM (active); in assay [4], 10.2 µM (active); in assay [5], 17.2 µM (active). Consider `CCCN(CC(=O)Nc1ccccc1C)C(=O)c1sc2ccccc2c1Cl`, for which, in assay [7], the IC50 is > 100 µM (inactive). Regarding `O=C(CCn1c2c(c3ccccc31)CCCC2)NNC(=O)c1ccc([N+](=O)[O-])cc1`, the IC50 in assay [7] is 1.8 µM (active). `CC1CCN(CCCNS(=O)(=O)c2cc(Br)cc3c2N(C(=O)C2CC2)CC3)CC1`: the EC50 in assay [1] was 0.299 µM (active). As for `Cc1nc(N/N=C/c2ccc(O)cc2O)cc(N2CCOCC2)n1`, the IC50 in assay [2] was > 2.72 µM (active). For the compound `Nc1nc(O)cc(NC2CCCC2)n1`, the IC50 in assay [2] was 12.4 µM (inactive). Still for that read-out and setting: in the case of `COc1ccc(CCC(=O)Nc2c(-c3ccc(N(C)C)cc3)n[nH]c2O)cc1` it was > 73.5 µM (inactive). Turning to `CN(C)C(CNC(=O)Cc1cccc(C(F)(F)F)c1)c1ccco1` (configuration not stated), the EC50 in assay [1] is 0.335 µM (active). Regarding `CC(C)(C)C(=O)[C@@H]1[C@@H]2C(=O)N(C3CCCCC3)C(=O)[C@@H]2[C@H]2c3ccccc3C=CN12`, the IC50 in assay [7] was 10.5 µM (active).
